For experiment [1], the system named is Stichococcus bacillaris SAG 379-1a / CCAP 379/1a. Description: Algal efficacy testing of dry paint films (modified ASTM 5589, 6-well plates). The note with it: 3 weeks; for % inhibition: at the total conc, vs blank; for Total conc: total biocide conc in paint reported for pass level ≧75% inhibition (max tested 5000 ppm if no pass). The class given is cell-based. As to the method: (§1) KATHON™ 893T (100% OIT) and ROCIMA™ 200 (20% DCOIT) were post added to a white, acrylic/silicone based outdoor paint free of biocides to give a total active ingredient concentration of 10000 and 1000 ppm respectively. These paints were then diluted with an antimicrobial free acrylic/silicone based paint and mixed to prepare targeted concentrations of antimicrobial compounds for the testing. The total biocides concentrations tested were 125, 250, 500, 1000, 2000 and 5000 ppm. After biocides addition or dilution, the paints were mixed 90 seconds with the horse power shaker (AXEL 75M3372/Agitateur SO-10MI) until uniformity was achieved. Paints containing different antimicrobial compounds at the same levels were mixed together in order to obtain the desired ratio of antimicrobial compounds. After one day, the paints were applied to Schleicher & Schuell filter paper at 280 μm wet film thickness and dried for 3 days at room temperature avoiding direct exposure to sunlight. Square discs (1.6 cm×1.6 cm) were cut out from each panel and were used as the substrate for algal efficacy tests. This sample size allowed for an agar border when the sample disc was placed into the well of the test plate.
(§2) Algal efficacy was tested according to modified ASTM 5589 which is a standard accelerated test method for determining resistance of various coatings (including paints) to algal defacement. To accommodate for high-throughput screening, this method was scaled down from petri dishes to 6-well plates. Bold Modified Basal Freshwater Nutrient Solution was used as growth medium. A single coated filter paper coupon was placed with a pair of sterile forceps at the center of the agar plug (on top) with the painted surface facing upwards. Algal inoculums were prepared by mixing equal concentrations (1×10^6 cfu/ml) and equal volumes of exponentially growing algae cultures.
(§3) Each well that contains a tested coupon was inoculated with 1750 μl of algal suspensions (1×10^6 cfu/ml) making sure that the whole surface (paint film as well as the agar surrounding it) was evenly covered. The plates were incubated at room temp (21° C.-25° C.) with cyclic exposure to light and dark phases, for a period of three weeks.
(§4) At the end of the three week incubation period, the samples were scored for percent inhibition regarding visible algal growth compared to the blank sample (0% inhibition).
(§5) The SI is calculated based on F. C.
(§6) SI value of <1 in the formula indicates a synergism of the blended biocides exists.
(§7) The minimal targeted inhibition was set at 75%, meaning a coupon with at least 75% algal growth inhibition was considered as a pass.

Another experiment concerns Chlorella sp. ATCC 7516. The experiment is described as above. The class given is cell-based. As to conditions: 3 weeks; for % inhibition: at the total conc, vs blank; for Total conc: total biocide conc in paint reported for pass level ≧75% inhibition (max tested 5000 ppm if no pass). As to the method:
as §1, §2, §3, §4, §5, §6, §7

What is called % inhibition is how much of the control response was suppressed. In the case of `CCCCCCCCn1sc(Cl)c(Cl)c1=O` [DCOIT, 4,5-dichloro-2-n-octyl-4-isothiazolin-3-one], the “% inhibition” value in experiment [1] (DCOIT/Lenacil table) is reported as 95%; in the experiment with Chlorella sp. ATCC 7516 (DCOIT/Lenacil table), 85%. Further, the Total conc (in experiment [1] (DCOIT/Lenacil table); in the experiment with Chlorella sp. ATCC 7516 (DCOIT/Lenacil table)) was 1000 ppm throughout.
Take `O=c1[nH]c2c(c(=O)n1C1CCCCC1)CCC2` [Lenacil, 3-cyclohexyl-1,5,6,7-tetrahydrocyclopentapyrimidine-2,4(3H)-dione]: the “% inhibition” value worked out at 70% in experiment [1] (DCOIT/Lenacil table), 30% in experiment [1] (OIT/Lenacil table), 30% in the experiment on Chlorella sp. ATCC 7516 (DCOIT/Lenacil table) and 45% in the experiment with Chlorella sp. ATCC 7516 (OIT/Lenacil table). In addition, the Total conc (in experiment [1] (DCOIT/Lenacil table); in experiment [1] (OIT/Lenacil table); with Chlorella sp. ATCC 7516 (DCOIT/Lenacil table); with Chlorella sp. ATCC 7516 (OIT/Lenacil table)) was 5000 ppm throughout.
In the case of `CCCCCCCCn1sccc1=O` [OIT, 2-n-octyl-4-isothiazolin-3-one], in experiment [1] (OIT/Lenacil table), the “% inhibition” value stood at 90% and the Total conc is reported as 500 ppm. In addition, in the experiment with Chlorella sp. ATCC 7516 (OIT/Lenacil table), the “% inhibition” value came out at 95% and the Total conc is 1000 ppm.

The record behind these values is patent US9301528B2 (Rohm and Haas Company, priority 2012, dated 2016).
